Earlier results in patent US20130137635A1, “TRYPTOPHAN HYDROXYLASE INHIBITORS FOR THE TREATMENT OF METASTATIC BONE DISEASE” (LEXICON PHARMACEUTICALS, INC., priority 2010, published 2013).

Key:
carcinoid syndrome = details: patients; reported in the 1960's
[1] = tested on: cholangiocarcinoma tumors; details: in vivo xenograft model of cholangiocarcinoma tumors; pCPA treatment

N[C@@H](Cc1ccc(Cl)cc1)C(=O)O (racemic) [pCPA, para-chlorophenylalanine]
effect on symptoms of carcinoid syndrome (carcinoid syndrome): alleviated some of the symptoms of carcinoid syndrome
side effects on administration (carcinoid syndrome): unacceptable side effects
tumor growth [1]: suppressed tumor growth
